Test results as given in patent US11427861B2, “Methods for identifying and modulating co-occurant cellular phenotypes” (MASSACHUSETTS INSTITUTE OF TECHNOLOGY, priority 2016, dated 2022).

Tested on: dendritic cells
Assay: Induction of the functional dendritic cell subset by immunomodulators
Assay type: cell-based, human
Details: dendritic cells of normal donors; TLR3 ligand as immunomodulator

Substance: poly I:C
- population of the functional subset of dendritic cells (CD64 and PD-L1 surface expression): induced a larger population of the functional subset of dendritic cells
